The source made the active and inactive calls. No cut-off for these calls is given here.
Columns and labels:
Tetranychus urticae = assay: Insecticidal activity against Tetranychus urticae (two-spotted spider mite) in primary leaf stage of bean plant assessed as mortality at 500 ppm after 2 days; assay type: functional; conditions: 48 h
[1] = tested on: Frankliniella occidentalis; assay: Insecticidal activity against Frankliniella occidentalis (western flower thrips) assessed as mortality at 500 ppm; assay type: functional, organism-based
Bemisia argentifolii = assay: Insecticidal activity against Bemisia argentifolii assessed as mortality at 500 ppm; assay type: functional, organism-based
Spodoptera litura = assay: Insecticidal activity against Spodoptera litura assessed as mortality at 500 ppm; assay type: functional, organism-based
Plutella xylostella = assay: Insecticidal activity against third-instar larvae of Plutella xylostella (diamondback moth) in six-leaf stage of cabbage plant assessed as mortality at 500 ppm sprayed over two excised leaf squares after 2 days; assay type: functional; conditions: 48 h

O=C1c2c([nH]c3ccccc3c2=O)-c2cccn21 [QUINOLACTACIDE]
mortality at 500 ppm (Tetranychus urticae): 42%
mortality [1]: inactive
mortality (Bemisia argentifolii): inactive
mortality (Spodoptera litura): inactive
mortality at 500 ppm (Plutella xylostella): 100%
